In general, IC50 refers to the concentration needed to halve the response being measured.

Experiment [1] relates to OPCs isolated from P0 mice. Nature of the experiment: Differentiation assay, murine OPCs. Type of experiment: cell-based, mouse. The conditions noted are these: murine P0 OPCs, 1 μM, 5, 7 and 10 DIV. Here is the method: (§1) We isolated OPCs, as previously described. Briefly, a stock papain solution was prepared containing ([…]; Worthington Biochemical), L-cysteine (0.2 mg/ml; Sigma), and EDTA (0.2 mg/ml; Sigma) in Hank’s Balanced Salt Solution (HBSS; Invitrogen) without Ca^2+ and Mg[2]. Then, the cerebral cortices of P0 CD1 mice were dissected out and placed for 5 minutes at 37 °C in a medium containing the stock papain solution in HBSS with Ca^2+ and Mg^2+ (1:10; Invitrogen) in order to easily remove the meninges. Once meninges and choroid plexus were removed, the tissue was enzymatically dissociated for 5 minutes at 37 °C again by using the papain solution (1:10 in HBSS without Ca^2+ and Mg^2+) and the digested tissue was then filtered through a 100 μm nylon mesh strainer (BD Biosciences) and seeded on poly-L-ornithine-coated (Sigma) 75 cm^2 flasks in DMEM medium (Invitrogen) containing 10% foetal bovine serum (FBS; BioWhittaker) and 100 U/mL penicillin, 0.1 mg/mL streptomycin and 0.25 μg/ml Amphotericin B antibiotic antimycotic solution (Sigma). Cultures were maintained at 37 °C and 5% CO2, and the medium was changed every 3 days. When the cultures reached confluence, they were shaken overnight at 250 rpm and at 37 °C in order to detach the OPCs located on the top of the confluent astrocyte monolayer and the medium was then filtered through a 40μm nylon mesh strainer (BDBiosciences) and centrifuged at 900 rpm. Cells were seeded twice (45 minutes each) in bacterial grade Petri dishes (Sterilin) to remove microglial cells. The resulting enriched oligodendrocyte progenitor cell suspension was counted and seeded.
(§2) Purified OPCs were placed on coverslips coated with poly-L-lysine and laminin in 24-well tissue culture dishes at a density of 2 × 10^4 cells/well. To promote differentiation, the cells were maintained in the differentiation medium (described above) and PDE7-GSK3 or GSK3 inhibitors (VP3.15 or TDZD8; 1 μM) were added to the culture medium. Different controls were used for the dual or single inhibitors due to the active substance being dissolved in differing amounts of DMSO. After 5, 7 and 10 DIV the cells were fixed with 4% PFA for further immunocytochemical analysis. Anti-CNPase antibodies (1:200;Covance; Cat#SMI-91R), anti-MBP antibodies (1:200; Serotec; Cat#MCA4095) for detecting oligodendrocytes and anti-Olig2 antibodies (1:250; Millipore; Cat#AB9610) as a marker for all oligodendroglial stages were used. Ten random fluorescence digital images were taken in each coverslip with a DFC480 FX digital camera (Leica) coupled to a Leica DM5000 B microscope for quantification. Data were expressed as a mean ratio of differentiated oligodendrocytes (CNPase^+-Olig2^+ double positive cells) with respect to total Olig2^+ cells ± SEM or percentage of CNPase^+ cells respect to control ± SEM, in at least three independent experiments, except with human samples (two independent experiments).

The next experiment concerns adult human OPCs. The experiment in a line: Differentiation assay, adult human OPCs. It is filed as cell-based. The conditions noted are these: adult human OPCs, 1 μM, 5 DIV. The procedure: Human brain samples were obtained from adult patients of temporal lobe epilepsy resistant to pharmacological treatment or traumatic brain injury; they underwent surgical treatment by the Neurosurgery Service at the Hospital Universitario de La Princesa (Madrid, Spain) and Hospital 12 de Octubre (Madrid, Spain). All tissue samples were obtained under protocols approved by the Research Ethics Committee of Toledo (Spain) review boards. All were conducted in accordance with the Helsinki Declaration and were approved by the Research Ethics Committee of Toledo (Spain). All patients provided informed consent prepared under the guidelines of the Research Ethics Committee at their respective hospital in Madrid (Spain).
For cells obtained from human biopsies, the same protocol was used except that papain solution was used 1:2.5 in HBSS for 10 minutes for meningeal disintegration and 1:10 in HBSS for 15 minutes for the tissue digestion, 25 cm[2] flasks were used, the medium was supplemented with 10 ng/ml of human PDGF-AA (Millipore) for 2 weeks and then incubated for 2 more weeks without growth factors before shaking and the shaking was carried out at 230 rpm instead of 250 rpm.
as §2

The subject of experiment [2] is OPCs from P0 mice. The experiment in a line: Survival assay (Casp3+-A2B5+ cells). It is filed as cell-based, mouse. The note with it: murine P0 OPCs, 1 μM, 2 DIV. Here is the method: as §1, with “When the cultures reached confluence, they were shaken overnight at 250 rpm and at 37 °C in order to detach the OPCs located on the top of the confluent astrocyte monolayer and the medium was then filtered through a 40μm nylon mesh strainer (BDBiosciences) and centrifuged at 900 rpm. Cells were seeded twice (45 minutes each) in bacterial grade Petri dishes (Sterilin) to remove microglial cells.” left out, “seeded. […]” for “seeded.”

For experiment [3], the system named is OPCs from P0 mice. Nature of the experiment: Proliferation assay (BrdU incorporation). Type of experiment: cell-based, mouse. The conditions noted are these: murine P0 OPCs, 1 μM, 72 h. Here is the method:
We isolated OPCs, as previously described. Briefly, a stock papain solution was prepared containing ([…]; Worthington Biochemical), L-cysteine (0.2 mg/ml; Sigma), and EDTA (0.2 mg/ml; Sigma) in Hank’s Balanced Salt Solution (HBSS; Invitrogen) without Ca^2+ and Mg[2]. Then, the cerebral cortices of P0 CD1 mice were dissected out and placed for 5 minutes at 37 °C in a medium containing the stock papain solution in HBSS with Ca^2+ and Mg^2+ (1:10; Invitrogen) in order to easily remove the meninges. […] The resulting enriched oligodendrocyte progenitor cell suspension was counted and seeded.
OPCs were placed on coverslips coated with poly-L-lysine (Sigma) and laminin (Sigma; 2 × 10^4 cells/well) and they were incubated with the inhibitors (VP3.15 or TDZD8; 1 μM) in the serum free medium described above. After 42 h in culture, BrdU (50 μM; Sigma) was added for 6 h and after a total of 72 h in culture, the cells were fixed and BrdU incorporation was detected by immunocytochemistry (1:20; G3G4, HybridomaBank) combined with the detection of the oligodendroglial marker Olig2 (1:250; Millipore; Cat#AB9610). […]
(Uptake of a labelled nucleoside into DNA is a usual measure of proliferation.)

In experiment [4] the test system is cerebellar slices demyelinated with LPC. Nature of the experiment: Ex vivo remyelination in cerebellar slice cultures demyelinated with LPC. It is filed as cell-based, CD1 P7 mice. The conditions noted are these: 5 μM, 3 days post lesion (3DPL). Here is the method:
The protocol used was modified from previously described. CD1 P7 mice were decapitated, and their cerebella were dissected into ice-cold HBSS (Invitrogen). 300 μm sagittal slices of cerebellum were cut using a McIllwain tissue chopper, placed on Millicell-CM organotypic culture inserts (3 slices per insert; Millipore) in a medium containing HBSS:BME: horse serum (1:2:1, Invitrogen), 28 mM D (+) - glucose (Normapur), […] L-Glutamine (Invitrogen) and 100 U/mL penicillin, 0.1 mg/mL streptomycin and 0.25 μg/ml Amphotericin B antibiotic anti-mycotic solution (Sigma) and maintained at 5% CO2 and 37 °C. Medium was changed every two days, and after 7 days in culture, demyelination was induced by addition of 0.5 mg/ml LPC (Sigma) to the medium for 15 h. After that, slices were treated with fresh medium containing PDE7-GSK3 or GSK3 inhibitors (VP1.15, VP3.15 or TDZD8; 5 μM). Cultures were maintained for 1 or 3 days post lesion (DPL), and then fixed for 40 minutes and immunostained with anti-MBP antibodies (myelin basic protein –as a marker of myelin; 1:200; Serotec; Cat#MCA4095) and anti-neurofilament antibody (as a marker of axons; 1:200; Abcam; Cat#ab8135). Fluorescence images were taken on a confocal SP5 resonant scanner (Leica Microsystems) at 1μm intervals in white matter areas at x40 magnification. The photographs were merged and co-localisation of both markers was quantified with Image J software using the colocalization highlighter plugin. This measurement was related to the area occupied by axons (neurofilament staining) and normalized with control values showing the data as the mean normalized myelination index ± SEM. Quantification was made in at least three independent experiments.

A further experiment concerns PDE7. Also on record: method as in PMID 24437940. The conditions noted are these: cited from earlier work.
A further experiment has as its system GSK-3. Also on record: method as in PMID 24437940. The conditions noted are these: read-out: GSK-3 inhibition IC50; cited from earlier work.

The structures appear in SMILES notation.

For the molecule `Cn1sc(=O)n(Cc2ccccc2)c1=O` [TDZD8, reference compound], the “number of mature oligodendrocytes (CNPase+-Olig2+ cells) vs control” value in experiment [1] is “no effect”. In addition, the “number of CNPase+-Olig2+ cells vs control (differentiation)” value in the experiment on adult human OPCs was “did not show any effect”. Further, in the experiment with OPCs from P0 mice [2], the “OPC survival (Casp3+-A2B5+ apoptotic cells)” value was “increased OPC survival”. Also, the “OPC proliferation (BrdU+-Olig2+ cells)” value in the experiment with OPCs from P0 mice [3] is “no changes”. Besides, the “remyelination (normalized myelination index)” value in experiment [4] is given as “no effect”. In addition, the PDE7 inhibition result in the experiment with PDE7 is given as “does not inhibit PDE7”. In addition, the IC50 is greater than 100000 nM in the experiment with PDE7 (read-out: PDE7 inhibition IC50) and 690 nM with GSK-3.

These data come from paper PMC5335257, “Promoting in vivo remyelination with small molecules: a neuroreparative pharmacological treatment for Multiple Sclerosis” (Scientific Reports, 2017).
